pIC50: −log10 of the molar value. The source made the active and inactive calls. No cut-off for these calls is given here.
Columns and labels:
[1] = biological target: T1, Prostaglandin G/H synthase 1 (Ovis aries, UniProt P05979); test: Inhibition of ovine COX-1
T1 sequence (P05979 whole entry): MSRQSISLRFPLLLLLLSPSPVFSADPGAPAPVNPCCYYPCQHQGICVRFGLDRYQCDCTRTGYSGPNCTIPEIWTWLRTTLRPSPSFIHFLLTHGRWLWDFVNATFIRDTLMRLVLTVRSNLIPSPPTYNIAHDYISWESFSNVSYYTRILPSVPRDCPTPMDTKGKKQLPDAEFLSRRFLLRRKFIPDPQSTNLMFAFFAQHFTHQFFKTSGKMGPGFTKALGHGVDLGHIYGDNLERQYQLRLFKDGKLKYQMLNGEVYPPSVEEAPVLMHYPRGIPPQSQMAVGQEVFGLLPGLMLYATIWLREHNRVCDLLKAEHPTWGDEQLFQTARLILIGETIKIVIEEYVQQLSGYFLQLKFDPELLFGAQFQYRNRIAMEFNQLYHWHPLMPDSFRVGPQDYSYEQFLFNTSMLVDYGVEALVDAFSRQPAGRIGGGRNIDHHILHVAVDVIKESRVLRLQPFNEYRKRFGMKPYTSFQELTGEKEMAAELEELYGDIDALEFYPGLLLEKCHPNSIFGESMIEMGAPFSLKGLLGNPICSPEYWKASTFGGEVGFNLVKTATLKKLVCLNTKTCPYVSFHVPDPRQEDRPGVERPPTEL

[2] = Acute ulcerogenic activity in Sprague-Dawley male rat assessed as congestion in submucosa at 50 mg/kg/day, po administered for 3 days by hematoxylin and eosin staining method; format: toxicity, organism-based, Stomach; conditions: in vivo, 72 h, time 3 day
HT-29 [3] = test: Induction of apoptosis in human HT-29 cells assessed as accumulation of cells at viable stage at 0.5 uM incubated for 24 hrs by Annexin V-FITC/propidium iodide staining based flow cytometry analysis (reference value: 91.7%); format: functional
HT-29 [4] = test: Induction of cell cycle arrest in human HT-29 cells assessed as increase the number of cells at S phase at 0.500 uM incubated for 24 hrs by propidium iodide staining based flow cytometry analysis relative to control; format: functional; conditions: dose 0.5 µM
[5] = Cytotoxicity against human MRC5 cells assessed as inhibition in cell growth incubated for 72 hrs by MTT assay; format: toxicity, cell-based
Sus scrofa = species: Sus scrofa; test: Inhibition of porcine brain tubulin polymerization at 1 uM by fluorescence-based tubulin polymerization assay
HT-29 [6] = test: Induction of apoptosis in human HT-29 cells assessed as accumulation of cells at late apoptotic stage at 0.5 uM incubated for 24 hrs by Annexin V-FITC/propidium iodide staining based flow cytometry analysis (reference value: 0.2%); format: functional
HT-29 [7] = test: Induction of apoptosis in human HT-29 cells assessed as accumulation of cells at necrotic stage at 0.5 uM incubated for 24 hrs by Annexin V-FITC/propidium iodide staining based flow cytometry analysis (reference value: 8.1%); format: functional
Ehrlich [8] = test: Antitumor activity against mouse Ehrlich solid carcinoma cells bearing adult male swiss albino mouse assessed as decrease in tumor volume at 50 mg/kg, po administered every other day and observed at 9 days; format: functional, organism-based; conditions: time 9.0 day
[9] = Acute ulcerogenic activity in Sprague-Dawley male rat assessed as congestion in edema at 50 mg/kg/day, po administered for 3 days by hematoxylin and eosin staining method; format: toxicity, organism-based; conditions: in vivo, 72 h, time 3 day
[10] = Acute ulcerogenic activity in Sprague-Dawley male rat assessed as average severity of ulcers at 50 mg/kg/day, po administered for 3 days; format: toxicity, organism-based; conditions: in vivo, 72 h, time 3 day
Rattus norvegicus [11] = test: Antiinflammatory activity against carrageenan-induced paw edema Sprague-Dawley rat model assessed as inhibition of inflammation at 50 mg/kg, po after 3 hrs relative to control; format: functional; design: scale not given: the % may be the effect or the level left
Rattus norvegicus [12] = test: Antiinflammatory activity against carrageenan-induced paw edema Sprague-Dawley rat model assessed as inhibition of paw edema by measuring edema thickness at 50 mg/kg, po measured after 3 hrs (reference value: 1.41 +/- 0.13 mm); format: functional
Rattus norvegicus [13] = test: Antiinflammatory activity against carrageenan-induced paw edema Sprague-Dawley rat model assessed as inhibition of paw edema by measuring edema thickness at 50 mg/kg, po measured after 5 hrs (reference value: 1.39 +/- 0.11 mm); format: functional
[14] = Acute ulcerogenic activity in Sprague-Dawley male rat assessed as incidence of ulcer/10 animal at 50 mg/kg/day, po administered for 3 days; format: toxicity, organism-based; conditions: in vivo, 72 h, time 3 day
[15] = Acute ulcerogenic activity in Sprague-Dawley male rat assessed as change in normal keratinized gastric mucosa at 50 mg/kg/day, po administered for 3 days by hematoxylin and eosin staining method; format: toxicity, organism-based, Stomach; conditions: in vivo, 72 h, time 3 day
Ehrlich [16] = test: Antitumor activity against mouse Ehrlich solid carcinoma cells bearing adult male swiss albino mouse assessed as decrease in tumor volume at 50 mg/kg, po administered every other day and observed at 13 days; format: functional, organism-based; conditions: time 13.0 day
Ehrlich [17] = test: Antitumor activity against mouse Ehrlich solid carcinoma cells bearing adult male swiss albino mouse assessed as tumor growth inhibition at 50 mg/kg, po administered every other day and observed at 13 days relative to control; format: functional; conditions: 312 h, time 13 day, read-out: TGI
HT-29 [18] = test: Cytotoxicity against human HT-29 cells assessed as inhibition in cell growth incubated for 72 hrs by MTT assay; format: functional, cell-based; conditions: HT-29, 72 h
Rattus norvegicus [19] = test: Antiinflammatory activity against carrageenan-induced paw edema Sprague-Dawley rat model assessed as inhibition of inflammation at 50 mg/kg, po after 5 hrs relative to control; format: functional; design: scale not given: the % may be the effect or the level left
Rattus norvegicus [20] = test: Antiinflammatory activity against carrageenan-induced paw edema Sprague-Dawley rat model assessed as inhibition of inflammation at 50 mg/kg, po after 1 hr relative to control; format: functional; design: scale not given: the % may be the effect or the level left
A2780 = test: Cytotoxicity against human A2780 cells assessed as inhibition in cell growth incubated for 72 hrs by MTT assay; format: functional, cell-based; conditions: A2780, 72 h
[21] = Selectivity index, ratio of IC50 for cytotoxicity against human MRC5 cells to IC50 for cytotoxicity against human MCF7 cells; conditions: MRC5 cells versus MCF7 cells
[22] = Selectivity index, ratio of IC50 for cytotoxicity against human MRC5 cells to IC50 for cytotoxicity against human A2780 cells; conditions: MRC5 cells versus A2780 cells
[23] = Acute ulcerogenic activity in Sprague-Dawley male rat assessed as average number of ulcers at 50 mg/kg/day, po administered for 3 days; format: toxicity, organism-based; conditions: in vivo, 72 h, time 3 day
Rattus norvegicus [24] = test: Antiinflammatory activity against carrageenan-induced paw edema Sprague-Dawley rat model assessed as inhibition of paw edema by measuring edema thickness at 50 mg/kg, po measured after 1 hr (reference value: 0.71 +/- 0.03 mm); format: functional
[25] = Acute ulcerogenic activity in Sprague-Dawley male rat assessed as change in hyperactive glands at 50 mg/kg/day, po administered for 3 days by hematoxylin and eosin staining method; format: toxicity, organism-based, Stomach; conditions: in vivo, 72 h, time 3 day
HT-29 [26] = test: Induction of cell cycle arrest in human HT-29 cells assessed as increase the number of cells at G2/M phase at 0.500 uM incubated for 24 hrs by propidium iodide staining based flow cytometry analysis relative to control; format: functional; conditions: dose 0.5 µM
[27] = Acute ulcerogenic activity in Sprague-Dawley male rat assessed as ulcer index at 50 mg/kg/day, po administered for 3 days; format: toxicity, organism-based; conditions: in vivo, 72 h, time 3 day
Ehrlich [28] = test: Antitumor activity against mouse Ehrlich solid carcinoma cells bearing adult male swiss albino mouse assessed as decrease in tumor weight at 50 mg/kg, po administered every other day and observed at 14 days; format: functional, organism-based; conditions: time 14.0 day
HT-29 [29] = test: Anticlonogenic activity against human HT-29 cells assessed as reduction in number of colonies at 0.500 uM incubated for 24 hrs by clonogenic survival assay; format: functional, cell-based; conditions: dose 0.5 µM
[30] = Acute ulcerogenic activity in Sprague-Dawley male rat assessed as change in normal non keratinized gastric mucosa at 50 mg/kg/day, po administered for 3 days by hematoxylin and eosin staining method; format: toxicity, organism-based, Stomach; conditions: in vivo, 72 h, time 3 day
[31] = Selectivity index, ratio of IC50 for cytotoxicity against human MRC5 cells to IC50 for cytotoxicity against human HT-29 cells; conditions: MRC5 cells versus HT-29 cells
MCF7 = test: Cytotoxicity against human MCF7 cells assessed as inhibition in cell growth incubated for 72 hrs by MTT assay; format: functional, cell-based; conditions: MCF7, 72 h
HT-29 [32] = test: Anti-migration activity in human HT-29 cells assessed as suppression in cell migration at 0.500 uM incubated 48 hrs by wound-healing assay; format: functional, cell-based; conditions: dose 0.5 µM
HT-29 [33] = test: Induction of apoptosis in human HT-29 cells assessed as accumulation of cells at early apoptotic stage at 0.5 uM incubated for 24 hrs by Annexin V-FITC/propidium iodide staining based flow cytometry analysis (reference value: 0.1%); format: functional
Ehrlich [34] = test: Antitumor activity against mouse Ehrlich solid carcinoma cells bearing adult male swiss albino mouse assessed as decrease in tumor volume at 50 mg/kg, po administered every other day and observed at 5 days; format: functional, organism-based; conditions: time 5.0 day
[35] = Acute ulcerogenic activity in Sprague-Dawley male rat assessed as change in normal gastric mucosa with mild congestion of the blood vessels in the submucosa at 50 mg/kg/day, po administered for 3 days by hematoxylin and eosin staining method; format: toxicity, organism-based, Stomach; conditions: in vivo, 72 h, time 3 day
HT-29 [36] = test: Induction of apoptosis in human HT-29 cells assessed as accumulation of cells at viable stage at 0.025 uM incubated for 24 hrs by Annexin V-FITC/propidium iodide staining based flow cytometry analysis (reference value: 91.7%); format: functional
HT-29 [37] = test: Anticlonogenic activity against human HT-29 cells assessed as reduction in number of colonies at 0.025 uM incubated for 24 hrs by clonogenic survival assay; format: functional, cell-based
HT-29 [38] = test: Anti-migration activity in human HT-29 cells assessed as suppression in cell migration at 0.025 uM incubated 48 hrs by wound-healing assay; format: functional, cell-based
HT-29 [39] = test: Induction of apoptosis in human HT-29 cells assessed as accumulation of cells at necrotic stage at 0.025 uM incubated for 24 hrs by Annexin V-FITC/propidium iodide staining based flow cytometry analysis (reference value: 8.1%); format: functional
HT-29 [40] = test: Induction of apoptosis in human HT-29 cells assessed as accumulation of cells at early apoptotic stage at 0.025 uM incubated for 24 hrs by Annexin V-FITC/propidium iodide staining based flow cytometry analysis (reference value: 0.1%); format: functional
HT-29 [41] = test: Induction of apoptosis in human HT-29 cells assessed as accumulation of cells at late apoptotic stage at 0.025 uM incubated for 24 hrs by Annexin V-FITC/propidium iodide staining based flow cytometry analysis (reference value: 0.2%); format: functional

SMILES	pIC50 [1]	IC50 at 72 h [5]	inhibition (Sus scrofa)	Activity (Ehrlich [8])	Activity [10]	Activity (Rattus norvegicus [11])	Activity (Rattus norvegicus [12])	Activity (Rattus norvegicus [13])	Activity [14]	Activity (Ehrlich [16])	inhibition in vivo at 50 mg/kg (Ehrlich [17])	pIC50 (HT-29 [18])	Activity (Rattus norvegicus [19])	Activity (Rattus norvegicus [20])	pIC50 (A2780)	selectivity ratio at 72 h [21]	selectivity ratio at 72 h [22]	Activity [23]	Activity (Rattus norvegicus [24])	UI [27]	other results
Cc1ccc(C2SCC(=O)N2c2ccc(OCC(=O)Nc3ccc(F)cc3)cc2)cc1 (stereo not drawn)	5.68	2460 nM	inactive	Active	2.6	32.7%	0.55 mm	0.57 mm	10%	Active	57.2%	6.34	58.99%	15.3%	4.98	3.04	0.23	1.67	0.59 mm	14.27	Activity [2]: Toxic; Activity (HT-29 [3]): 76.2%; Activity (HT-29 [4]): 6.8%; Activity (HT-29 [6]): 6.1%; Activity (HT-29 [7]): 7.7%; Activity [9]: Toxic; Activity [15]: Non-Toxic; Activity [25]: Non-Toxic; Activity (HT-29 [26]): 15.6%; Activity (Ehrlich [28]): Active; Activity (HT-29 [29]): Active; Activity [30]: Non-Toxic; selectivity ratio at 72 h [31]: 5.35; pIC50 (MCF7): 6.09; Activity (HT-29 [32]): Active; Activity (HT-29 [33]): 10%; Activity (Ehrlich [34]): Active
Cc1ccc(C2SCC(=O)N2c2ccc(OCC(=O)Nc3ccc(Cl)cc3)cc2)cc1 (stereo not drawn)	4.87	470 nM	Active	Active	2	32.7%	0.49 mm	0.73 mm	10%	Active	51.6%	7.70	47.48%	15.3%	6.74	4.27	2.61	3.33	0.52 mm	15.33	Activity [35]: Non-Toxic; Activity (HT-29 [36]): 41.1%; Activity (HT-29 [37]): Active; Activity (HT-29 [38]): Active; Activity (Ehrlich [28]): Active; Activity (HT-29 [39]): 24.1%; Activity (HT-29 [40]): 19.2%; selectivity ratio at 72 h [31]: 23.5; pIC50 (MCF7): 6.96; Activity (HT-29 [41]): 15.6%; Activity (Ehrlich [34]): Active

— ChEMBL document CHEMBL5625227, “Discovery and optimization of 2,3-diaryl-1,3-thiazolidin-4-one-based derivatives as potent and selective cytotoxic agents with anti-inflammatory activity” (Eur J Med Chem, 2023)
